We go through 7 molecules from US20230017045A1, “PYRIDINE AND PYRIMIDINE CARBOXYLATE HERBICIDES AND METHODS OF USE THEREOF” (Dow AgroSciences LLC, priority 2017, published 2023).

Molecules are shown by their SMILES. Read-outs that look alike come from different tables or passages of the source.

This assay has as its system test plant species. Put plainly: Post-emergent herbicidal activity test (greenhouse, foliar spray, visual growth reduction). It is filed as in vivo. Conditions: post-emergence, 336 h, 140 g ai/ha, 14 days after application. How it is done: Post-emergent Test: Seeds or nutlets of the desired test plant species were planted in Sun Gro Metro-Mix® 360 planting mixture, which typically has a pH of 6.0 to 6.8 and an organic matter content of about 30 percent, in plastic pots with a surface area of 64 square centimeters. In some aspects, to ensure good germination and healthy plants, a fungicide treatment and/or other chemical or physical treatment was applied. The plants were grown for 7-21 d in a greenhouse with an approximate 15 h photoperiod which was maintained at 23-29° C. during the day and 22-28° C. during the night. Nutrients and water were added on a regular basis and supplemental lighting was provided with overhead metal halide 1000-Watt lamps as necessary. Plants were used for testing when they reached the first or second true leaf stage. A weighed amount, determined by the highest rate to be tested, of each test compound was placed in a 25 mL glass vial and was dissolved in 4 mL of a 97:3 v/v mixture of acetone and DMSO to obtain concentrated stock solutions. […] The concentrated stock solutions obtained were diluted with 20 mL of an aqueous mixture containing acetone, water, isopropyl alcohol, DMSO, […] crop oil concentrate, and X-77 surfactant in a 48.5:39:10:1.5:1.0:0.02 v/v ratio to obtain spray solutions containing the application rate. Compound requirements are based upon a 12 mL application volume at a rate of 187 liters per hectare (L/ha). Formulated compounds were applied to the plant material with an overhead Mandel track sprayer equipped with […] nozzles calibrated to deliver 187 L/ha over an application area of 0.64 square meters at a spray height of 18 inches (43 cm) above the average plant canopy height. Control plants were sprayed in the same manner with the solvent blank. The treated plants and control plants were placed in a greenhouse as described above and watered by subirrigation to prevent wash-off of the test compounds. After 14 d, the condition of the test plants as compared with that of the nontreated and control plants was determined visually and scored on a scale of 0 to 100 percent where 0 corresponds to no injury and 100 corresponds to complete control. In the reporting of the results, Table A: Percent Growth Reduction Conversion Table was used.

Where [1] appears, read: ALOMY: blackgrass (Alopecurus myosuroides), read-out: Visual Growth Reduction (%) 14 Days After Application, ALOMY.
The mark [2] stands for this setting: AMARE: redroot pigweed (Amaranthus retroflexus), read-out: Visual Growth Reduction (%) 14 Days After Application, AMARE.
The mark [3] stands for this setting: AVEFA: wild oat (Avena fatua), read-out: Visual Growth Reduction (%) 14 Days After Application, AVEFA.
Setting [4] is: CHEAL: lambsquarters (Chenopodium album), read-out: Visual Growth Reduction (%) 14 Days After Application, CHEAL.
The mark [5] stands for this setting: CIRAR: canada thistle (Cirsium arvense), read-out: Visual Growth Reduction (%) 14 Days After Application, CIRAR.
Where [6] appears, read: CYPES: yellow nutsedge (Cyperus esculentus), read-out: Visual Growth Reduction (%) 14 Days After Application, CYPES.
Where [7] appears, read: DIGSA: crabgrass (Digitaria sanguinalis), read-out: Visual Growth Reduction (%) 14 Days After Application, DIGSA.
The mark [8] stands for this setting: ECHCG: barnyardgrass (Echinochloa crus-galli), read-out: Visual Growth Reduction (%) 14 Days After Application, ECHCG.
Where [9] appears, read: IPOHE: ivy-leaf morning glory (Ipomoea hederacea), read-out: Visual Growth Reduction (%) 14 Days After Application, IPOHE.
The mark [10] stands for this setting: KCHSC: kochia (Bassia scoparia), read-out: Visual Growth Reduction (%) 14 Days After Application, KCHSC.
The mark [11] stands for this setting: ORYSA: rice (Oryza sativa), read-out: Visual Growth Reduction (%) 14 Days After Application, ORYSA.
Setting [12] is: SETFA: giant foxtail (Setaria faberi), read-out: Visual Growth Reduction (%) 14 Days After Application, SETFA.
[13] abbreviates: SORVU: grain sorghum (Sorghum vulgare), read-out: Visual Growth Reduction (%) 14 Days After Application, SORVU.
Setting [14] is: STEME: common chickweed (Stellaria media), read-out: Visual Growth Reduction (%) 14 Days After Application, STEME.
Setting [15] is: TRZAS: wheat, spring (Triticum aestivum), read-out: Visual Growth Reduction (%) 14 Days After Application, TRZAS.

For `C#Cc1cc(-c2ccc(C(F)(F)F)cc2Cl)nc(C(=O)OC)c1Cl` [F40, methyl 3-chloro-6-(2-chloro-4-(trifluoromethyl)phenyl)-4-ethynylpicolinate], the pest or weed control at 140 g/ha fell in the range of 0 to 29% under setting [1]; 0 to 29% under setting [2]; 0 to 29% under setting [3]; 0 to 29% under setting [4]; 0 to 29% under setting [5]; 0 to 29% under setting [6]. Besides, the pest or weed control at 140 g/ha under setting [7] was 0 to 29%; the pest or weed control at 140 g/ha under setting [8] was 0 to 29%; the pest or weed control at 140 g/ha under setting [9] lay in the range of 30 to 44%; the pest or weed control at 140 g/ha under setting [10] lay within 0 to 29%; the pest or weed control at 140 g/ha under setting [11] lay in the range of 0 to 29%; the pest or weed control at 140 g/ha under setting [12] fell in the range of 0 to 29%. The pest or weed control at 140 g/ha under setting [13] lay within 60 to 74%, the pest or weed control at 140 g/ha under setting [14] lay within 0 to 29% and the pest or weed control at 140 g/ha under setting [15] was 0 to 29%.

As to `COC(=O)c1nc(-c2ccc(C(F)(F)F)cc2Cl)cc(Br)c1Cl` [F41, methyl 4-bromo-3-chloro-6-(2-chloro-4-(trifluoromethyl)phenyl)picolinate], the pest or weed control at 140 g/ha lay within 0 to 29% under setting [1]; 0 to 29% under setting [2]; 0 to 29% under setting [3]; 0 to 29% under setting [4]; 0 to 29% under setting [5]; 0 to 29% under setting [6]. Besides, the pest or weed control at 140 g/ha was in the range of 0 to 29% under setting [7]; 0 to 29% under setting [8]; 0 to 29% under setting [9]; 0 to 29% under setting [10]; 0 to 29% under setting [11]; 0 to 29% under setting [12]. For the same molecule, the pest or weed control at 140 g/ha reads like this: under setting [13], 0 to 29%; under setting [14], 0 to 29%; under setting [15], 0 to 29%.

On to `COC(=O)c1nc(-c2ccc(C(F)(F)F)cc2Cl)c(F)c(Cl)c1Cl` [F43, methyl 3,4-dichloro-6-(2-chloro-4-(trifluoromethyl)phenyl)-5-fluoropicolinate], for which the pest or weed control at 140 g/ha under setting [1] was 0 to 29%; the pest or weed control at 140 g/ha under setting [2] fell in the range of 0 to 29%; the pest or weed control at 140 g/ha under setting [3] fell in the range of 0 to 29%; the pest or weed control at 140 g/ha under setting [4] is 0 to 29%; the pest or weed control at 140 g/ha under setting [5] was in the range of 0 to 29%; the pest or weed control at 140 g/ha under setting [6] lay in the range of 0 to 29%. The pest or weed control at 140 g/ha lay in the range of 0 to 29% under setting [7]; 0 to 29% under setting [8]; 0 to 29% under setting [9]; 0 to 29% under setting [10]; 0 to 29% under setting [11]; 0 to 29% under setting [12]. Moreover, the pest or weed control at 140 g/ha by setting is: under setting [13], 45 to 59%; under setting [14], 0 to 29%; under setting [15], 0 to 29%.

Regarding `C#CCOC(=O)c1nc(-c2ccc(C(F)(F)F)cc2Cl)ccc1Cl` [F45, prop-2-yn-1-yl 3-chloro-6-(2-chloro-4-(trifluoromethyl)phenyl)picolinate], the pest or weed control at 140 g/ha by setting is: under setting [1], 30 to 44%; under setting [2], 95 to 100%; under setting [3], 45 to 59%; under setting [4], 95 to 100%; under setting [5], 95 to 100%; under setting [6], 0 to 29%. The pest or weed control at 140 g/ha is, setting by setting: under setting [7], 95 to 100%; under setting [8], 30 to 44%; under setting [10], 85 to 94%; under setting [11], 60 to 74%; under setting [12], 85 to 94%; under setting [13], 85 to 94%. Also, the pest or weed control at 140 g/ha fell in the range of 75 to 84% under setting [14] and 85 to 94% under setting [15].

As to `COC(=O)c1nc(-c2cc(F)c(C)cc2Cl)ccc1Cl` [F46, Methyl 3-chloro-6-(2-chloro-5-fluoro-4-methylphenyl) picolinate], the pest or weed control at 140 g/ha was in the range of 0 to 29% under setting [1]; 0 to 29% under setting [2]; 0 to 29% under setting [3]; 60 to 74% under setting [4]; 0 to 29% under setting [5]; 0 to 29% under setting [6]. Besides, the pest or weed control at 140 g/ha under setting [7] is 0 to 29%; the pest or weed control at 140 g/ha under setting [8] lay in the range of 0 to 29%; the pest or weed control at 140 g/ha under setting [10] lay in the range of 0 to 29%; the pest or weed control at 140 g/ha under setting [11] was in the range of 0 to 29%; the pest or weed control at 140 g/ha under setting [12] lay within 0 to 29%; the pest or weed control at 140 g/ha under setting [13] is 0 to 29%. In addition, the pest or weed control at 140 g/ha under setting [14] fell in the range of 0 to 29% and the pest or weed control at 140 g/ha under setting [15] is 0 to 29%.

As to `COC(=O)c1nc(-c2cc(OC)c(Cl)cc2Cl)ccc1Cl` [F47, Methyl 3-chloro-6-(2,4-dichloro-5-methoxyphenyl) picolinate], the pest or weed control at 140 g/ha by setting is: under setting [1], 0 to 29%; under setting [2], 0 to 29%; under setting [3], 0 to 29%; under setting [4], 0 to 29%; under setting [5], 0 to 29%; under setting [6], 0 to 29%. For the same molecule, the pest or weed control at 140 g/ha reads like this: under setting [7], 0 to 29%; under setting [8], 0 to 29%; under setting [10], 0 to 29%; under setting [11], 0 to 29%; under setting [12], 0 to 29%; under setting [13], 0 to 29%. Also, the pest or weed control at 140 g/ha is, setting by setting: under setting [14], 0 to 29%; under setting [15], 0 to 29%.

Turning to `COC(=O)c1nc(-c2ccc(Cl)c(C)c2Cl)ccc1Cl` [F48, Methyl 3-chloro-6-(2,4-dichloro-3-methylphenyl) picolinate], the pest or weed control at 140 g/ha runs as follows: under setting [1], 0 to 29%; under setting [2], 60 to 74%; under setting [3], 0 to 29%; under setting [4], 95 to 100%; under setting [5], 0 to 29%; under setting [6], 0 to 29%. Further, the pest or weed control at 140 g/ha runs as follows: under setting [7], 0 to 29%; under setting [8], 0 to 29%; under setting [10], 45 to 59%; under setting [11], 0 to 29%; under setting [12], 0 to 29%; under setting [13], 0 to 29%. Also, the pest or weed control at 140 g/ha lay within 0 to 29% under setting [14] and 0 to 29% under setting [15].
